Among the data in US11878975B2, “Substituted indole compounds useful as TLR inhibitors” (BRISTOL-MYERS SQUIBB COMPANY, priority 2017, dated 2024) are IC50 values, retold here.

Common to all, as to assay type: cell-based
The target in one assay is T1, human TLR9 (Homo sapiens, UniProt Q9NR96).
T1 construct: host or cells: HEK-Blue cells
T1 sequence (Q9NR96 26-1032): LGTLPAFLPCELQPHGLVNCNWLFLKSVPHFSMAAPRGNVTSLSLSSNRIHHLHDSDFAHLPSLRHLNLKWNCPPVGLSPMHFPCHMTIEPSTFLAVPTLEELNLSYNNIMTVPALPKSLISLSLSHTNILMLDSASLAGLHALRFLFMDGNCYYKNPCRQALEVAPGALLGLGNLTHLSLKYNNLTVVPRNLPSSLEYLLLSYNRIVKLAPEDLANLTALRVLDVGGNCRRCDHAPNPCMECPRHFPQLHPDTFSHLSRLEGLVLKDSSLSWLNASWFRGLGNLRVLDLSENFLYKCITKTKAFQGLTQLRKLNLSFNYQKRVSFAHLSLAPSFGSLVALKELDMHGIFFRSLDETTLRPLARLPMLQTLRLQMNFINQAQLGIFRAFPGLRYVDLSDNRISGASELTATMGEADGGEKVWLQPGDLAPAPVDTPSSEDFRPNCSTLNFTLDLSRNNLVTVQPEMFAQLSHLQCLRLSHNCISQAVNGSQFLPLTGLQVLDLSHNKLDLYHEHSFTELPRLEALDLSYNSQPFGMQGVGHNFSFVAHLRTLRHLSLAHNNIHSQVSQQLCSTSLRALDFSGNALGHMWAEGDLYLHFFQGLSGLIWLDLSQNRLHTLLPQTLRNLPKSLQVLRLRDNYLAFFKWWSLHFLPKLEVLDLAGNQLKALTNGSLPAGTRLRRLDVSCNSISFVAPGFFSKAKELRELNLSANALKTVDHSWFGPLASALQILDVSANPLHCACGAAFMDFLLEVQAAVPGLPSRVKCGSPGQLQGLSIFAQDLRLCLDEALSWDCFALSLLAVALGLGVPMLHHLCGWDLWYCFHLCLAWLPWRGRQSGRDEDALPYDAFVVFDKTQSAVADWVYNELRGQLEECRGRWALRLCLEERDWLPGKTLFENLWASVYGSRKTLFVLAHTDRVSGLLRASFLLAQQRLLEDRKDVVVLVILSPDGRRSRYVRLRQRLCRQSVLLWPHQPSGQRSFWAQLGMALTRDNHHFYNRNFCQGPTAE
The assay is described as follows: TLR9 inhibition reporter assay (HEK-Blue cells, SEAP reporter, ODN2006 stimulation). Particulars: HEK-Blue cells overexpressing human TLR9, SEAP reporter, ODN2006 5 nM. The procedure, abridged: (§1)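 SEAP readout after 22 h agonist exposure at 37 °C; final agonist levels were 7.5 μM gardiquimod (TLR7), 15.9 μM R848 (TLR8) and 5 nM ODN2006 (TLR9). Inhibitors, spanning 0.05 nM to 50 μM final, were applied 30 min beforehand.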

In the next assay the target is T2, human TLR8 (Homo sapiens, UniProt Q9NR97).
T2 construct: host or cells: HEK-Blue cells
T2 sequence (Q9NR97 27-1041): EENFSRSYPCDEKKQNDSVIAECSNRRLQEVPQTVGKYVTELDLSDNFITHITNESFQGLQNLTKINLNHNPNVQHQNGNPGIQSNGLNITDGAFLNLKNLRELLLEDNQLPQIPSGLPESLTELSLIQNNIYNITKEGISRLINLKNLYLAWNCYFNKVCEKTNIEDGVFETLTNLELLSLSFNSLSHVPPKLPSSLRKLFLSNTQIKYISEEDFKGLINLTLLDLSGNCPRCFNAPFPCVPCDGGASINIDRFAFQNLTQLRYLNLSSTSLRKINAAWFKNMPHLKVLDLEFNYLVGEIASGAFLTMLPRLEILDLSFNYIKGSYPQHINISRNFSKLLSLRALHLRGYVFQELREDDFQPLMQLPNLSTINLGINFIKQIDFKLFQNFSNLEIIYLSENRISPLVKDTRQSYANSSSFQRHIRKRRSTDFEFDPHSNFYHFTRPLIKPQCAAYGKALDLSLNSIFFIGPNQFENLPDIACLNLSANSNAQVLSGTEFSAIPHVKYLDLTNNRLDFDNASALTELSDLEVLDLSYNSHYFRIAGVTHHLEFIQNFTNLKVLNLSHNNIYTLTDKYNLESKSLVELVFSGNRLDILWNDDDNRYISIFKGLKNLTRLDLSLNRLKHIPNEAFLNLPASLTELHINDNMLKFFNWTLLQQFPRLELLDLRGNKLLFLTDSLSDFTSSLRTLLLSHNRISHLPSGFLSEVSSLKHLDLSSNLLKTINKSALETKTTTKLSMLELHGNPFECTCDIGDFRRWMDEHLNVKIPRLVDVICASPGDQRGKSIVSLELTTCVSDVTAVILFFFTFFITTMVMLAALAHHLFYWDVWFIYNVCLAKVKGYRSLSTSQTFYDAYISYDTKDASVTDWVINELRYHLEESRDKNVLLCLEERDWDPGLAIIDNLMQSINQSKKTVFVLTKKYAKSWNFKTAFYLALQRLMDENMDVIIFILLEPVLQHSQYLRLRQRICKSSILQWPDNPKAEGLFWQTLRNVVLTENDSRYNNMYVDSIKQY
The assay is described as follows: TLR8 inhibition reporter assay (HEK-Blue cells, SEAP reporter, R848 stimulation). Particulars: HEK-Blue cells overexpressing human TLR8, SEAP reporter, R848 15.9 μM. The procedure, abridged: as §1
(Reporter assays use an easily measured gene product as a stand-in for the process of interest.)

The target in the next assay is T3, human TLR7 (Homo sapiens, UniProt Q9NYK1).
T3 construct: host or cells: HEK-Blue cells
T3 sequence (Q9NYK1 27-1049): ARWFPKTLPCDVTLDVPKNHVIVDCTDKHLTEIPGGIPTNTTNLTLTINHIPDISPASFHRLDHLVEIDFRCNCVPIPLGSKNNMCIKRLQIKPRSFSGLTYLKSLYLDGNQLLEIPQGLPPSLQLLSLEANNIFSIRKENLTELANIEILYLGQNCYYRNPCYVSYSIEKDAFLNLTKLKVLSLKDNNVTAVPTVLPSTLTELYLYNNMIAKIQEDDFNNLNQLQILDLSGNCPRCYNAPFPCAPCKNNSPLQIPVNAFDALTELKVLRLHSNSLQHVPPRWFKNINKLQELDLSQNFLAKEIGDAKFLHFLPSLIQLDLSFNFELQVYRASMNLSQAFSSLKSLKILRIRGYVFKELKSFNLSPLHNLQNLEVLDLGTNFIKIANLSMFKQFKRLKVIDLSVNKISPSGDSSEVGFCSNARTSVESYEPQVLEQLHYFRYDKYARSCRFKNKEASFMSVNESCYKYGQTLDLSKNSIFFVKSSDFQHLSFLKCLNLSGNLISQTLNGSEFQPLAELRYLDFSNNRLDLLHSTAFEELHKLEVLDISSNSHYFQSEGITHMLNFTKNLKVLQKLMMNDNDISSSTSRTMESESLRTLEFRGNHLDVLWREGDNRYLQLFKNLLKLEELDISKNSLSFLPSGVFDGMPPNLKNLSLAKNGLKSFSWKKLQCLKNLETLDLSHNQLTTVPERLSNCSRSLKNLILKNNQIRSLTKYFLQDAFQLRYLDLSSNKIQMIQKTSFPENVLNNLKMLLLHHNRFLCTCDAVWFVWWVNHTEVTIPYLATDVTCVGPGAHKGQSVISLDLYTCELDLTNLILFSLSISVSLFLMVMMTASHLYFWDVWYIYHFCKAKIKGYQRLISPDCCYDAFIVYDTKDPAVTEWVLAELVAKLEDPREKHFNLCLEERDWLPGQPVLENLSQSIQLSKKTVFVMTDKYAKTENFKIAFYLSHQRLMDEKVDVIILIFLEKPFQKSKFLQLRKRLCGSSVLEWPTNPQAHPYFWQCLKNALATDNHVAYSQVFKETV
The assay is described as follows: TLR7 inhibition reporter assay (HEK-Blue cells, SEAP reporter, gardiquimod stimulation). As to conditions: HEK-Blue cells overexpressing human TLR7, SEAP reporter, gardiquimod 7.5 μM. A digest of the protocol:
as §1

With `Cc1c(-c2[nH]c3ccc(C4CCC(N5CC(F)(F)C5)CC4)cc3c2C(C)C)cn2ncnc2c1C` (stereo not drawn) [Example 25], the IC50 was greater than 50 µM against human TLR9, 0.18 µM against human TLR8 and 0.049 µM against human TLR7.

Consider `COCCN1CCCC(c2ccc3[nH]c(-c4cc(OC)c5ncnn5c4)c(C(C)C)c3c2)C1` (single isomer, unassigned) [Example 252], for which the IC50 against human TLR9 is 1.16 µM; on human TLR8, 0.0016 µM; at human TLR7, 0.002 µM.

Turning to `Cc1c(-c2[nH]c3ccc(CC4CNC4)cc3c2C(C)C)cn2ncnc2c1C` [Example 399, 5-[(azetidin-3-yl)methyl]-2-{7,8-dimethyl-[1,2,4]triazolo[1,5-a]pyridin-6-yl}-3-(propan-2-yl)-1H-indole], the IC50 at human TLR9 stood at 1.96 µM; on human TLR8 it was 0.0098 µM; against human TLR7 it was 0.011 µM.

As for `Cc1cc(-c2[nH]c3ccc(C4CCC(N(C)C5CC5)CC4)cc3c2C(C)C)cn2ncnc12` (single isomer, unassigned) [Example 9], the values for the concentration for half-maximal inhibition (IC50) against human TLR9, against human TLR8 and against human TLR7 were 1.88 µM, 0.0018 µM and 0.00036 µM, respectively.

As to `Cc1c(-c2[nH]c3ccc(C4CCC(NCC(C)(C)O)CC4)cc3c2C(C)C)cn2ncnc2c1C` (stereo not drawn) [Example 106], the IC50 on human TLR9 stood at 1.39 µM; against human TLR8, 0.00028 µM; on human TLR7 it was 0.00067 µM.

Consider `CN[C@@H](C)C(=O)N1CCCC(c2ccc3[nH]c(-c4cc(C)nc(C)c4)c(C(C)C)c3c2)C1` (stereo partly drawn) [Example 219], for which the IC50 on human TLR9 is 0.519 µM; against human TLR8, 0.0085 µM; on human TLR7 it was 0.009 µM.

As to `COc1cc(-c2[nH]c3ccc(C4CCCN(C5COC5)C4)cc3c2C(C)C)cn2ncnc12` (stereo not drawn) [Example 243], the values for the IC50 against human TLR9, at human TLR8 and on human TLR7 were 12.9 µM, 0.016 µM and 0.01 µM, respectively.

Consider `Cc1cc(-c2[nH]c3ccc(C4CCC(C(=O)N5CCN(C)CC5)CC4)cc3c2C(C)C)cn2ncnc12` (single isomer, unassigned) [Example 157], for which the IC50 came out at 6.25 µM against human TLR9, 0.0025 µM on human TLR8 and 0.00038 µM on human TLR7.

On to `Cc1cc(-c2[nH]c3ccc(C4CCC(NC5COC5)CC4)cc3c2C(C)C)cc(C)n1` (stereo not drawn) [Example 60], for which the IC50 against human TLR9 is 0.501 µM; at human TLR8, 0.0018 µM; on human TLR7 it was 0.00026 µM.

Consider `Cc1cc(-c2[nH]c3ccc(C4CN5CCC4CC5)cc3c2C(C)C)cn2ncnc12` (stereo not drawn) [Example 364], for which the IC50 on human TLR9 was found to be 1.05 µM; at human TLR8, 0.0038 µM; on human TLR7 it was 0.00064 µM.

As for `Cc1c(-c2[nH]c3ccc(C4CN(C(=O)CN(C)C)CCO4)cc3c2C(C)C)cn2ncnc2c1C` (stereo not drawn) [Example 329], the IC50 against human TLR9 was 4.14 µM; at human TLR8 it was 0.0034 µM; on human TLR7, 0.001 µM.

On to `COc1cc(-c2[nH]c3ccc(C4CCCN(CC(C)(C)O)C4)cc3c2C(C)C)cn2ncnc12` (stereo not drawn) [Example 248, 1-(3-(3-isopropyl-2-(8-methoxy-[1,2,4]triazolo[1,5-a]pyridin-6-yl)-1H-indol-5-yl)piperidin-1-yl)-2-methylpropan-2-ol], for which the concentration for half-maximal inhibition (IC50) worked out at 2.01 µM on human TLR9, 0.0021 µM against human TLR8 and 0.00076 µM at human TLR7.

With `Cc1cc(-c2[nH]c3ccc(C4CCCNC4)cc3c2C(C)C)cc(C)n1` (stereo not drawn) [Example 186], the IC50 came out at 0.28 µM at human TLR9, 0.0036 µM at human TLR8 and 0.004 µM against human TLR7.

Take `Cc1c(-c2[nH]c3ccc(C4CN(C)C4)cc3c2C(C)C)cn2cnnc2c1C` [Example 533]: the IC50 against human TLR9 is 2.19 µM; at human TLR8 it was 0.042 µM; against human TLR7, 0.008 µM.

For the compound `CNCC(=O)N1CCCC(c2ccc3[nH]c(-c4cn5ncnc5c(C)c4C)c(C(C)C)c3c2)C1` (stereo not drawn) [Example 214], the IC50 at human TLR9 was 5.88 µM; on human TLR8 it was 0.0029 µM; against human TLR7 it was 0.002 µM.

`Cc1cc(-c2[nH]c3ccc(C4CCC(O)CC4)cc3c2C(C)C)ccn1` (stereo not drawn) [Example 173]: the IC50 on human TLR9 was greater than 50 µM; against human TLR8, 0.056 µM; on human TLR7, 0.046 µM.

Turning to `Cc1cc(-c2[nH]c3ccc(C4CCCN(C(=O)[C@@H]5CCN5)C4)cc3c2C(C)C)cc(C)n1` (stereo partly drawn) [Example 218], the IC50 at human TLR9 is 0.699 µM; at human TLR8, 0.08 µM; against human TLR7 it was 0.015 µM.

With `Cc1cc(-c2[nH]c3ccc(C4CCC(N(C)CC(=O)N(C)C)CC4)cc3c2C(C)C)cn2ncnc12` (single isomer, unassigned) [Example 177, 2-((4-(3-isopropyl-2-(8-methyl-[1,2,4]triazolo[1,5-a]pyridin-6-yl)-1H-indol-5-yl)cyclohexyl)(methyl)amino)-N,N-dimethylacetamide], the IC50 on human TLR9 turned out to be 7.02 µM; at human TLR8, 0.024 µM; against human TLR7 it was 0.005 µM.

On to `Cc1c(-c2[nH]c3ccc(C4CN(C(C)C)C4)cc3c2C(C)C)cn2cnnc2c1C` [Example 534], for which the IC50 at human TLR9 came out at 7.17 µM; at human TLR8, 0.028 µM; against human TLR7 it was 0.009 µM.

By IC50 is commonly meant the concentration that inhibits the measured activity by half. Lower therefore signals greater potency in that assay.
